Consider 42 compounds from patent publication US10301314B2, “Compounds and methods for the prevention and treatment of tumor metastasis and tumorigenesis” (The United States of America, as represented by the …, priority 2011, dated 2019).

For test [1], the system named is PC3M cell line that stably expresses GFP-PTB to mark PNCs. Put plainly: High content assay for PNC detection (reduction of PNC prevalence). It counts as cell-based, human. Conditions: Table 4, PC3M GFP-PTB cells, 16 hrs incubation; for IC50: Homo sapiens, PC-3M. The text has this: The quantitative output for this assay is the reduction of PNC prevalence. The PNC can be detected in living cells by the expression of a green fluorescent protein (GFP) tagged to the PNC localized protein, PTB. A PC3M cell line was used that stably expresses GFP-PTB to mark PNCs. This method eliminates the need for immunofluorescent staining.
The IN Cell Analyzer 1000 automated fluorescent imaging system (GE Healthcare, Piscataway, N.J.) was used for automated image acquisition. […] The instrument acquired images of each well in a 1536-well plate with a laser-based autofocus system. To score PNC prevalence in a high-content throughput, the Multi-Target Analysis (MTA) algorithm (GE Healthcare, Investigator v3.5) to identify individual cells and granules (PNCs) within these cells was used. The nucleus was segmented via a region growing method (50 μm^2 minimum area) with light shading and noise removal to allow “touching” nuclei to be separated. Granules in the nucleus (PNCs) were segmented using a multiscale top hat method, which measures granules of 1 to 2 μm in size and used a smart masking method to identify the boundaries of each segmented granule. The algorithm was optimized and validated using positive and negative controls (50 μM camptothecin and DMSO, respectively). In particular, the MTA algorithm allows for the identification of multiple subcellular compartments and organelles (or granules) within those compartments. In this instance, the algorithm's capability to identify objects within the same color channel that only differ in size or fluorescent intensity was utilized. Also, the algorithm allows for building complex hierarchical classification systems, using output measures within the algorithm to filter and define subpopulations. For this particular assay, PNC-positive cells were scored when 1 to 3 PNC granules were detected per nucleus. Cells that contained 0 granules were scored as PNC negative, and cells with >3 granules were assumed to be false positives (very few cells have more than 3 PNCs in one focus plane), and were also scored as PNC negative.

Test [2] concerns PC3M reporter cell line stably expressing the PTB-GFP. The test can be described thus: ATP quantitation assay (ATPLite). Particulars: Table 4, PC3M cells, 24 hrs incubation; for IC50: Homo sapiens, PC-3M. It counts as cell-based, human. The procedure: This follow-up assay was conducted to measure the effect of compounds on cell health by measuring ATP levels (ATPLite™). ATPLite™ is an ATP monitoring system based on firefly (Photinus pyralis) luciferase. The level of ATP in a metabolically active cell is a general marker for its viability. ATP levels are often reduced during necrosis or apoptosis. In this assay, the luciferase enzyme catalyzes the conversion of the added substrate D-luciferin to oxyluciferin and light with ATP. Thus, the emitted light is proportional to the ATP concentration. For this assay, the highly metastatic PC3M reporter cell line stably expressing the PTB-GFP was provided by Professor Sui Huang of Northwestern University. The media and cell culture reagents were purchased from Invitrogen (Carlsbad, Calif.), ATPLite™ came from PerkinElmer.
On the technique in general: Cellular ATP, detected with luciferase, serves as a proxy for viable cell number.

By IC50 is commonly meant the concentration needed to halve the response being measured.

The structures appear in SMILES notation.

In the case of `N=c1c2c(-c3ccccc3)c(-c3ccccc3)n(Cc3ccc(OC(F)(F)F)cc3)c2ncn1CC1CCOCC1` [Compound 91], the values for the IC50 in test [1] and in test [2] were 5.9 µM and 30.4 µM, respectively.
The like results for `COc1ccc(-c2c(-c3ccc(OC)cc3)n(Cc3ccccc3)c3ncn([C@H]4CC[C@H](OC)CC4)c(=N)c23)cc1` [Compound 93] were, in that order, 7.43 µM and 60.7 µM.
The like results for `COc1ccc(-c2c(-c3ccc(OC)cc3)n(Cc3ccccc3)c3ncn([C@H]4CC[C@H](O)CC4)c(=N)c23)cc1` [Compound 94] were, in that order, 9.35 µM and 24.1 µM.
Turning to `N=c1c2c(-c3ccccc3)c(-c3ccccc3)n(CC3CCCCC3)c2ncn1CC1CCOCC1` [Compound 95], the IC50 is 11.8 µM in test [1] and 24.1 µM in test [2].
The like results for `N=c1c2c(-c3ccccc3)c(-c3ccccc3)n(Cc3ccccc3)c2ncn1CCCN1CCN(c2ccccc2)CC1` [Compound 96] were, in that order, 11.8 µM and 30.4 µM.
`COc1ccc(Cn2c(-c3ccccc3)c(-c3ccccc3)c3c(=N)n(N4CCOCC4)cnc32)cc1` [Compound 98]: the results for the IC50 in test [1] and in test [2] were 14.8 µM and 121 µM, respectively.
In test [1], `N=c1c2c(-c3ccccc3)cn(Cc3ccccc3)c2ncn1C(CO)(CO)CO` [Compound 99] displayed an IC50 of 14.8 µM. Moreover, the “ATP IC50(μM)” value in test [2] is “inactive”.
On to `COc1ccc(-c2c(-c3ccc(OC)cc3)n(Cc3ccccc3)c3ncn(C4CCCC[C@H]4O)c(=N)c23)cc1` (stereo partly drawn) [Compound 100], for which the IC50 in test [1] came to 14.8 µM; in test [2], 48.2 µM.
The like results for `N=c1c2c(-c3ccccc3)c(-c3ccccc3)n(CC3CCCCC3)c2ncn1C[C@H]1CCCC[C@@H]1O` [Compound 101] were, in that order, 14.8 µM and 24.1 µM.
The like results for `N=c1c2c(-c3ccccc3)c(-c3ccccc3)n(Cc3ccco3)c2ncn1Cc1ccccc1` [Compound 102] were, in that order, 15.8 µM and 25.7 µM.
In the case of `COc1ccc(-c2c(-c3ccc(OC)cc3)n(Cc3ccccc3)c3ncn(CCO)c(=N)c23)cc1` [Compound 103], the IC50 was 18.7 µM in test [1] and 24.1 µM in test [2].
The like results for `COc1ccc(-c2c(-c3ccc(OC)cc3)n(Cc3ccccc3)c3ncn(C4CCOCC4)c(=N)c23)cc1` [Compound 104] were, in that order, 23.5 µM and 30.4 µM.
Take `N=c1c2c(-c3ccccc3)c(-c3ccccc3)n(Cc3ccc(S(N)(=O)=O)cc3)c2ncn1CCCO` [Compound 105]: the IC50 in test [1] was found to be 23.5 µM; in test [2], 304 µM.
The like results for `N=c1c2c(-c3ccccc3)c(-c3ccccc3)n(CC3CCCCC3)c2ncn1CCCO` [Compound 106] were, in that order, 23.5 µM and 30.4 µM.
Consider `N=c1c2c(-c3ccccc3)c(-c3ccccc3)n(Cc3ccco3)c2ncn1CCCN1CCOCC1` [Compound 107], for which the IC50 in test [1] turned out to be 25 µM; in test [2], 32.4 µM.
The like results for `N=c1c2c(-c3ccccc3)c(-c3ccccc3)n(Cc3ccccc3)c2ncn1[C@H](CO)Cc1ccccc1` [Compound 108] were, in that order, 29.6 µM and 38.3 µM.
The like results for `N=c1c2c(-c3ccccc3)cn(Cc3ccccc3)c2ncn1CCCCCO` [Compound 109] were, in that order, 46.9 µM and 96.1 µM.
The like results for `N=c1c2c(-c3ccccc3)cn(Cc3ccc(Br)cc3)c2ncn1CCCN1CCN(c2ccccc2)CC1` [Compound 110] were, in that order, 46.9 µM and 30.4 µM.
As for `N=c1c2c(-c3ccccc3)cn(Cc3ccccc3)c2ncn1[C@H](CO)Cc1ccccc1` [Compound 111], the IC50 worked out at 93.5 µM in test [1] and 121 µM in test [2].
Consider `COc1ccc(Cn2c(-c3ccccc3)c(-c3ccccc3)c3c(=N)n([C@H](C)[C@@H](O)c4ccccc4)cnc32)cc1` [Compound 112], for which the “PNC IC50(μM)” value in test [1] was “inactive”. Also, the IC50 in test [2] amounted to 60.7 µM.
The like results for `COc1ccc(-c2c(-c3ccc(OC)cc3)n(Cc3ccccc3)c3ncn(C4CCCC[C@H]4CO)c(=N)c23)cc1` (stereo partly drawn) [Compound 113] were, in that order, “inactive” and 30.4 µM.
Take `COC(=O)C[C@H](C(=O)OC)n1cnc2c(c(-c3ccccc3)cn2Cc2ccc(Br)cc2)c1=N` [Compound 114]: the “PNC IC50(μM)” value in test [1] was “inactive”. The “ATP IC50(μM)” value in test [2] was “inactive”.
In the case of `COCCn1cnc2c(c(-c3ccccc3)cn2Cc2ccccc2)c1=N` [Compound 115], in test [1], the “PNC IC50(μM)” value was “inactive”. Moreover, the IC50 in test [2] is 121 µM.
`CC[Si](CC)(CC)OCCCn1cnc2c(c(-c3ccccc3)cn2Cc2ccc(Br)cc2)c1=N` [Compound 116]: the “PNC IC50(μM)” value in test [1] was “inactive”. In addition, the “ATP IC50(μM)” value in test [2] is “inactive”.
Consider `N=c1c2c(-c3ccccc3)cn(Cc3ccccc3)c2ncn1[C@@H]1CCCC[C@H]1N` [Compound 117], for which the “PNC IC50(μM)” value in test [1] was “inactive”. Moreover, the IC50 in test [2] was found to be 96.1 µM.
Regarding `N=c1c2c(-c3ccccc3)cn(Cc3ccccc3)c2ncn1CCCO` [Compound 118], in test [1], the “PNC IC50(μM)” value is “inactive”. Further, the IC50 in test [2] worked out at 121 µM.
Take `C[C@H]([C@@H](O)c1ccccc1)n1cnc2c(c(-c3ccccc3)cn2Cc2ccccc2)c1=N` [Compound 119]: the “PNC IC50(μM)” value in test [1] is “inactive”. The IC50 in test [2] is 121 µM.
On to `N=c1c2c(-c3ccccc3)cn(Cc3ccccc3)c2ncn1CCCCO` [Compound 120], for which, in test [1], the “PNC IC50(μM)” value is “inactive”. Further, inhibition in test [2] was half-maximal at 241 µM (IC50).
The like results for `COC(=O)c1ccc(Cn2cnc3c(c(-c4ccccc4)cn3Cc3ccccc3)c2=N)cc1` [Compound 121] were, in that order, “inactive” and 121 µM.
Consider `N=c1c2c(-c3ccccc3)cn(Cc3ccccc3)c2ncn1C1CCOCC1` [Compound 122], for which the “PNC IC50(μM)” value in test [1] is “inactive”. Besides, the “ATP IC50(μM)” value in test [2] is “inactive”.
In the case of `COc1ccc(-c2c(-c3ccc(OC)cc3)n(Cc3ccccc3)c3ncn(CC4CCOCC4)c(=N)c23)cc1` [Compound 123], in test [1], the “PNC IC50(μM)” value is “inactive”. In test [2], this compound had an IC50 of 24.1 µM.
As to `C#CCn1cnc2c(c(-c3ccccc3)cn2Cc2ccccc2)c1=N` [Compound 124], the “PNC IC50(μM)” value in test [1] is “inactive”. For the same compound, the “ATP IC50(μM)” value in test [2] was “inactive”.
For the compound `N=c1c2c(-c3ccccc3)cn(Cc3ccccc3)c2ncn1CCCN1CCN(c2ccccc2)CC1` [Compound 125], the “PNC IC50(μM)” value in test [1] was “inactive”. This compound also had an IC50 in test [2] of 30.4 µM.
As for `N=c1c2c(-c3ccccc3)c(-c3ccccc3)n(Cc3ccccc3)c2ncn1CC1COC1` [Compound 126], in test [1], the “PNC IC50(μM)” value is “inactive”. This compound had an IC50 in test [2] of 96.1 µM.
As for `N=c1c2c(-c3ccccc3)cn(Cc3ccccc3)c2ncn1CC1CCCO1` (stereo not drawn) [Compound 127], the “PNC IC50(μM)” value in test [1] is “inactive”. The same compound registered an IC50 in test [2] of 96.1 µM.
For `COC(=O)C[C@@H](C(=O)OC)n1cnc2c(c(-c3ccccc3)cn2Cc2ccccc2)c1=N` [Compound 128], the “PNC IC50(μM)” value in test [1] was “inactive”. The “ATP IC50(μM)” value in test [2] is “inactive”.
With `COc1ccc(-c2c(-c3ccc(OC)cc3)n(Cc3ccccc3)c3ncn(CC4COC4)c(=N)c23)cc1` [Compound 129], the “PNC IC50(μM)” value in test [1] is “inactive”. Moreover, the “ATP IC50(μM)” value in test [2] is “inactive”.
As to `COc1ccc(CCn2cnc3c(c(-c4ccccc4)cn3Cc3ccccc3)c2=N)cc1OC` [Compound 130], in test [1], the “PNC IC50(μM)” value was “inactive”. Also, the midpoint of inhibition in test [2], the IC50, lay at 24.1 µM.
`N=c1c2c(-c3ccccc3)cn(Cc3ccccc3)c2ncn1CCNCCO` [Compound 131]: in test [1], the “PNC IC50(μM)” value is “inactive”. For the same compound, the IC50 in test [2] came out at 121 µM.
With `COc1ccc(-c2c(-c3ccc(OC)cc3)n(Cc3ccccc3)c3ncn([C@H]4CC[C@@H](O)CC4)c(=N)c23)cc1` [Compound 132], the “PNC IC50(μM)” value in test [1] was “inactive”. For the same compound, the “ATP IC50(μM)” value in test [2] was “inactive”.
For `N=c1c2c(-c3ccccc3)c(-c3ccccc3)n(CC3CC3)c2ncn1CC1CCOCC1` [Compound 134], in test [1], the “PNC IC50(μM)” value is “inactive”. The compound further had an IC50 in test [2] of 60.7 µM.
In the case of `COc1ccc(-c2c(-c3ccc(OC)cc3)n(Cc3ccccc3)c3ncn(CCCO)c(=N)c23)cc1` [Compound 135], the “PNC IC50(μM)” value in test [1] is “inactive”. In test [2], half-maximal inhibition (IC50) required 30.4 µM.
